Data on 5 compounds can be found in patent US20240417747A1 (priority 2021, published 2024).

Entries after “also recorded” stand apart in the source; their conditions may differ. Counter-ions that a name gives are not always drawn. Like-named read-outs stand apart in the source and are kept apart here.

The test system of assay [1] is HLB positive C. sinensis 'Valencia' and 'Vernia'. It is filed as in vivo, Citrus sinensis.
Assay [2] deals with ROS related genes in C. sinensis protoplast cells. It is filed as cell-based, Citrus sinensis. Particulars: GA 5 mg/L, 1.8 mM H2O2, 6 h.
Assay [3] concerns HLB positive C. sinensis 'Valencia' trees. It is filed as in vivo, Citrus sinensis. Particulars: for H2O2 concentration in exudates of phloem-enriched bark tissues / cell death (ion leakage) in exudates of phloem-enriched bark tissues: weekly foliar spray, six weeks.
The subject of assay [4] is C. sinensis protoplast cells. It is filed as cell-based, Citrus sinensis.
Assay [5] concerns CLas-positive stems of Valencia sweet orange. The conditions noted are these: branches soaked in DPI 25 μM, 48 h, vs water.
Assay [6] deals with CLas-positive 5-year-old C. sinensis trees. It is filed as in vivo, Citrus sinensis. Particulars: 7 days post trunk injection of streptomycin.
For assay [7], the system named is immortalized rat embryo fibroblasts. Particulars: cited from earlier work.
The subject of assay [8] is Arabidopsis. The conditions noted are these: cited from earlier work.
The mark [9] stands for this setting: 6-year-old 'Valencia' and 'Vernia', eight months after GA application.
Setting [10] is: GA 1,247 ppm foliar spray, 8 months after application.
Where [11] appears, read: GA 5 mg/L foliar spray weekly for six weeks.
The mark [12] stands for this setting: GA 25 mg/L foliar spray weekly for six weeks.
Setting [13] is: uric acid 1.8 mM, rutin 0.6 mM, listed as Uric acid.

As to `C=C1C[C@]23C[C@@]1(O)CC[C@H]2[C@@]12C=C[C@H](O)[C@@](C)(C(=O)O1)[C@H]2[C@@H]3C(=O)O` [GA, Gibberellic acid], in assay [1] (setting [9]), the “plant growth: canopy volume” value was “significantly promoted”, the “plant growth: tree height” value is reported as “significantly promoted” and the “plant growth: trunk diameter” value is on record as “significantly promoted”. In assay [1] (setting [10]), the HLB disease symptoms result was “significantly reduced; also recorded: suppresses” and the “percentage of symptomatic leaves (ratio symptomatic leaves vs total leaves)” value is recorded as “significantly reduced”. Also, in assay [1] (in vivo), the “HLB disease incidence (infected trees)” value turned out to be 100%. In assay [2], the “expression of RbohD” value is recorded as “inhibited”; the “expression of genes encoding H2O2 scavenging enzymes catalases, ascorbate peroxidases and glutathione peroxidases” value was “induced”. Besides, in assay [3] (setting [11]), the “H2O2 caused by CLas (phloem exudates)” value is on record as “reduced” and the “ion leakage caused by CLas (phloem exudates)” value was “reduced”. In addition, in assay [3] (setting [12]), the “H2O2 caused by CLas (phloem exudates)” value is “reduced” and the “ion leakage caused by CLas (phloem exudates)” value was “reduced”. The “growth as indicated by new flushes” value in assay [3] (six weeks after foliar spray, vs water control) is “promoted growth”. Also, the “death of C. sinensis protoplast cells caused by 1.8 mM H2O2” value in assay [4] (GA 5 mg/L, 24 h) is “suppresses”.
As to `c1ccc2c(c1)[I+]c1ccccc1-2` [DPI, diphenyleneiodonium], the “ROS levels (H2O2 concentration) in phloem-enriched bark tissues of CLas-positive stems” value in assay [5] is given as “reduced”.
As to `[H]/N=C(/N)N[C@H]1[C@H](O)[C@@H](O)[C@H](O[C@@H]2O[C@@H](C)[C@](O)(C=O)[C@H]2O[C@@H]2O[C@@H](CO)[C@H](O)[C@@H](O)[C@@H]2NC)[C@@H](N/C(N)=N\[H])[C@@H]1O` [streptomycin, streptomycin sulfate], in assay [6], the “H2O2 content in the phloem tissues” value was “significantly reduced” and the “ion leakage in the phloem tissues” value is reported as “significantly reduced”. The CLas titers result in assay [6] (phloem tissues) is recorded as “significantly reduced”.
In the case of `O=c1[nH]c(=O)c2[nH]c(=O)[nH]c2[nH]1` [uric acid], in assay [3] (six weeks after first weekly foliar spray, uric acid 1.8 mM, rutin 0.6 mM, GA), the “HLB symptoms compared with before treatment” value is “significantly reduced”. Also, in assay [3] (uric acid 1.8 mM, rutin 0.6 mM), the “H2O2 concentration in exudates of phloem-enriched bark tissues” value was “reduced” and the “cell death (ion leakage) in exudates of phloem-enriched bark tissues” value was “reduced”. In assay [3] (setting [13]), the “H2O2 concentration in exudates of phloem-enriched bark tissues” value is “reduce” and the “cell death (ion leakage) in exudates of phloem-enriched bark tissues” value is “reduce”. For the same compound, the H2O2 concentration result in assay [4] (addition of uric acid 0.2 mM (text cites FIG. 5C)) is on record as “reduced”. Further, the “cell death of protoplast cells caused by H2O2” value in assay [4] (addition of uric acid 0.2 mM, 24 h) was “reduced”.
Turning to `OO` [H2O2], in assay [7], the concentration inducing necrosis was 700 µmol/L. In addition, the “concentration inhibiting growth of plants” value in assay [8] was 1 mM. Besides, the “cell death of C. sinensis protoplast cells” value in assay [4] (H2O2 0.6 mmol/L or lower, 24 h) is reported as “not”; in assay [4] (H2O2 1.8 mmol/L, 24 h) it was “induced cell death”. In addition, the “viability of protoplast cells (FDA staining)” value in assay [4] (different concentrations of H2O2, 24 h) was “kills”.
